{
  "source": "BindingDB's records for doi:10.1016/j.ejmech.2017.05.048",
  "about": "(University of Auckland, 2017)",
  "data": [
    {"test": "Inhibition of perforin (unknown origin)-mediated 51Cr-labelled human Jurkat cell lysis preincubated with protein for 30 mins followed by cell addition measured after 4 hrs by gamma counting method", "units": {"IC50": "µM"}, "values": [
      {"compound": "COC(=O)c1ccccc1S(=O)(=O)Nc1cncc(-c2ccc(-c3ccc4c(c3)CN(C)C4=O)s2)c1", "IC50": 2.9},
      {"compound": "CN1Cc2cc(-c3ccc(-c4cncc(NS(=O)(=O)c5ccccc5)c4)s3)ccc2C1=O", "IC50": 8.46},
      {"compound": "CN1Cc2cc(-c3ccc(-c4cncc(NS(=O)(=O)c5ccc6c(c5)OCCO6)c4)s3)ccc2C1=O", "IC50": "> 20"},
      {"compound": "CN1Cc2cc(-c3ccc(-c4cncc(NS(=O)(=O)c5ccccc5Cl)c4)s3)ccc2C1=O", "IC50": 4.01},
      {"compound": "Cc1ccc(S(=O)(=O)Nc2cncc(-c3ccc(-c4ccc5c(c4)CN(C)C5=O)s3)c2)cc1Cl", "IC50": 8.14},
      {"compound": "CN1Cc2cc(-c3ccc(-c4cncc(S(=O)(=O)Nc5ccc(F)cc5F)c4)s3)ccc2C1=O", "IC50": 2.24},
      {"compound": "COc1ccccc1S(=O)(=O)Nc1cncc(-c2ccc(-c3ccc4c(c3)CN(C)C4=O)s2)c1", "IC50": 14.8},
      {"compound": "COC(=O)c1cccc(S(=O)(=O)Nc2cncc(-c3ccc(-c4ccc5c(c4)CN(C)C5=O)s3)c2)c1", "IC50": 7.77},
      {"compound": "CN1Cc2cc(-c3ccc(-c4cncc(NS(=O)(=O)c5ccc(F)cc5)c4)s3)ccc2C1=O", "IC50": 9.65},
      {"compound": "CN1Cc2cc(-c3ccc(-c4ccc(OC(F)(F)F)c(NS(=O)(=O)c5ccccn5)c4)s3)ccc2C1=O", "IC50": "> 20"},
      {"compound": "CN1Cc2cc(-c3ccc(-c4cncc(NS(=O)(=O)c5ccccc5C(F)(F)F)c4)s3)ccc2C1=O", "IC50": 1.45},
      {"compound": "Cc1ccc(NS(=O)(=O)c2ccccn2)cc1-c1ccc(-c2ccc3c(c2)CN(C)C3=O)s1", "IC50": 15.4},
      {"compound": "CN1Cc2cc(-c3ccc(-c4ccnc(NS(=O)(=O)c5ccc(F)cc5F)c4)s3)ccc2C1=O", "IC50": 4.7},
      {"compound": "CCOC(=O)c1ccc(S(=O)(=O)Nc2cncc(-c3ccc(-c4ccc5c(c4)CN(C)C5=O)s3)c2)cc1", "IC50": 19.4},
      {"compound": "CN1Cc2cc(-c3ccc(-c4cncc(N(C)S(=O)(=O)c5ccc(F)cc5F)c4)s3)ccc2C1=O", "IC50": 16.1},
      {"compound": "Cc1ncsc1S(=O)(=O)Nc1cncc(-c2ccc(-c3ccc4c(c3)CN(C)C4=O)s2)c1", "IC50": 11.6},
      {"compound": "Cc1ccc(S(=O)(=O)Nc2ccccn2)cc1-c1ccc(-c2ccc3c(c2)CN(C)C3=O)s1", "IC50": "> 20"},
      {"compound": "CN1Cc2cc(-c3ccc(-c4cncc(NC(=O)c5ccc(F)cc5F)c4)s3)ccc2C1=O", "IC50": "> 20"},
      {"compound": "CN1Cc2cc(-c3ccc(-c4cncc(NS(=O)(=O)c5ccc(F)c(C(F)(F)F)c5)c4)s3)ccc2C1=O", "IC50": 3.75},
      {"compound": "CN1Cc2cc(-c3ccc(-c4cnc(F)c(NS(=O)(=O)c5ccccn5)c4)s3)ccc2C1=O", "IC50": 4.1},
      {"compound": "Cc1cc(F)ccc1S(=O)(=O)Nc1cncc(-c2ccc(-c3ccc4c(c3)CN(C)C4=O)s2)c1", "IC50": 5.53},
      {"compound": "CN1Cc2cc(-c3ccc(-c4cncc(NS(=O)(=O)c5cccc(OC(F)(F)F)c5)c4)s3)ccc2C1=O", "IC50": 1.42},
      {"compound": "CN1Cc2cc(-c3ccc(-c4ccc(NS(=O)(=O)c5ccc(F)cc5F)nc4)s3)ccc2C1=O", "IC50": "> 20"},
      {"compound": "CN1Cc2cc(-c3ccc(-c4cncc(NS(=O)(=O)c5ccc(S(C)(=O)=O)cc5)c4)s3)ccc2C1=O", "IC50": "> 20"},
      {"compound": "CN1Cc2cc(-c3ccc(-c4cncc(NS(=O)(=O)c5ccc(C#N)cc5)c4)s3)ccc2C1=O", "IC50": 5.17},
      {"compound": "CN1Cc2cc(-c3ccc(-c4cncc(NS(=O)(=O)c5ccccn5)c4)s3)ccc2C1=O", "IC50": 1.07},
      {"compound": "CN1Cc2cc(-c3ccc(-c4cncc(NS(=O)(=O)c5cccc(C(F)(F)F)c5)c4)s3)ccc2C1=O", "IC50": 1.22},
      {"compound": "CN1Cc2cc(-c3ccc(-c4cncc(NS(=O)(=O)c5ccc(Cl)cc5Cl)c4)s3)ccc2C1=O", "IC50": 15},
      {"compound": "CN1Cc2cc(-c3ccc(-c4cncc(NS(=O)(=O)c5ccccc5Br)c4)s3)ccc2C1=O", "IC50": 2.66},
      {"compound": "CN1Cc2cc(-c3ccc(-c4cncc(NS(=O)(=O)c5cccc(C#N)c5)c4)s3)ccc2C1=O", "IC50": "> 20"},
      {"compound": "Cc1cc(C)n(-c2ccc(S(=O)(=O)Nc3cncc(-c4ccc(-c5ccc6c(c5)CN(C)C6=O)s4)c3)cc2)n1", "IC50": 19.1},
      {"compound": "CN1Cc2cc(-c3ccc(-c4cncc(NS(=O)(=O)c5ccc(Br)cc5Br)c4)s3)ccc2C1=O", "IC50": 2.87},
      {"compound": "CN1Cc2cc(-c3ccc(-c4cncc(NS(=O)(=O)c5ccc(C(=O)O)cc5)c4)s3)ccc2C1=O", "IC50": 0.75},
      {"compound": "CN1Cc2cc(-c3ccc(-c4cncc(NS(=O)(=O)c5ccc(C(F)(F)F)cc5)c4)s3)ccc2C1=O", "IC50": "> 20"},
      {"compound": "CN1Cc2cc(-c3ccc(-c4cncc(NS(=O)(=O)c5cccnc5)c4)s3)ccc2C1=O", "IC50": 15.1},
      {"compound": "CN1Cc2cc(-c3ccc(-c4cncc(NS(=O)(=O)c5ccc(C(F)(F)F)cc5Cl)c4)s3)ccc2C1=O", "IC50": "> 20"},
      {"compound": "CN1Cc2cc(-c3ccc(-c4cncc(NS(=O)(=O)c5ccc([N+](=O)[O-])cc5)c4)s3)ccc2C1=O", "IC50": 2.74},
      {"compound": "CN1Cc2cc(-c3ccc(-c4cncc(NS(=O)(=O)c5cc(C(F)(F)F)cc(C(F)(F)F)c5)c4)s3)ccc2C1=O", "IC50": "> 20"},
      {"compound": "CN1Cc2cc(-c3ccc(-c4cncc(NS(=O)(=O)c5ccccc5C#N)c4)s3)ccc2C1=O", "IC50": 9.17},
      {"compound": "CN1Cc2cc(-c3ccc(-c4cncc(NS(=O)(=O)c5ccccc5F)c4)s3)ccc2C1=O", "IC50": 2.03},
      {"compound": "CN1Cc2cc(-c3ccc(-c4cnc(F)c(NS(=O)(=O)c5ccc(F)cc5F)c4)s3)ccc2C1=O", "IC50": 1.99},
      {"compound": "CN1Cc2cc(-c3ccc(-c4cccc(NS(=O)(=O)c5ccc(F)cc5F)c4)s3)ccc2C1=O", "IC50": 5.74},
      {"compound": "Cc1ccc(NS(=O)(=O)c2ccc(F)cc2F)cc1-c1ccc(-c2ccc3c(c2)CN(C)C3=O)s1", "IC50": "> 20"},
      {"compound": "CN1Cc2cc(-c3ccc(-c4cncc(NS(=O)(=O)c5cccs5)c4)s3)ccc2C1=O", "IC50": 1.07},
      {"compound": "COc1ccc(S(=O)(=O)Nc2cncc(-c3ccc(-c4ccc5c(c4)CN(C)C5=O)s3)c2)cc1", "IC50": 6.27},
      {"compound": "CN1Cc2cc(-c3ccc(-c4cncc(NS(=O)(=O)c5ccc(OC(F)(F)F)cc5)c4)s3)ccc2C1=O", "IC50": "> 20"},
      {"compound": "CN1Cc2cc(-c3ccc(-c4cncc(NS(=O)(=O)c5cccc(F)c5)c4)s3)ccc2C1=O", "IC50": 20},
      {"compound": "CN1Cc2cc(-c3ccc(-c4cncc(NS(=O)(=O)c5ccccc5S(C)(=O)=O)c4)s3)ccc2C1=O", "IC50": 6.8},
      {"compound": "COC(=O)c1ccc(S(=O)(=O)Nc2cncc(-c3ccc(-c4ccc5c(c4)CN(C)C5=O)s3)c2)cc1", "IC50": 8.16},
      {"compound": "CN1Cc2cc(-c3ccc(-c4cncc(NS(=O)(=O)c5cccc(Br)c5)c4)s3)ccc2C1=O", "IC50": 2.11},
      {"compound": "CN1Cc2cc(-c3ccc(-c4cccc(S(=O)(=O)Nc5ccccn5)c4)s3)ccc2C1=O", "IC50": 8.92},
      {"compound": "COc1cccc(S(=O)(=O)Nc2cncc(-c3ccc(-c4ccc5c(c4)CN(C)C5=O)s3)c2)c1", "IC50": 2.56},
      {"compound": "CN1Cc2cc(-c3ccc(-c4cncc(NS(=O)(=O)c5ccc(F)c(F)c5)c4)s3)ccc2C1=O", "IC50": 18.6},
      {"compound": "CN1Cc2cc(-c3ccc(-c4cnc(Cl)c(NS(=O)(=O)c5ccc(F)cc5F)c4)s3)ccc2C1=O", "IC50": 1.03},
      {"compound": "CN1Cc2cc(-c3ccc(-c4cncc(NS(=O)(=O)c5c(F)cc(F)cc5F)c4)s3)ccc2C1=O", "IC50": 1.76},
      {"compound": "COc1ccc(-c2ccc(-c3ccc4c(c3)CN(C)C4=O)s2)cc1S(=O)(=O)Nc1ccccn1", "IC50": 9.68},
      {"compound": "CN1Cc2cc(-c3ccc(-c4cncc(NS(=O)(=O)c5cccc(Cl)c5)c4)s3)ccc2C1=O", "IC50": 2.42},
      {"compound": "CN1Cc2cc(-c3ccc(-c4cncc(NS(=O)(=O)c5ccc(-c6ccno6)s5)c4)s3)ccc2C1=O", "IC50": 7.1},
      {"compound": "CN1Cc2cc(-c3ccc(-c4cncc(NS(=O)(=O)c5ccc(Br)cc5)c4)s3)ccc2C1=O", "IC50": 8.77},
      {"compound": "CN1Cc2cc(-c3ccc(-c4cncc(NS(=O)(=O)c5ccc(-c6cnco6)cc5)c4)s3)ccc2C1=O", "IC50": 3.05},
      {"compound": "CN1Cc2cc(-c3ccc(-c4cncc(NS(=O)(=O)c5ccc(Cl)cc5)c4)s3)ccc2C1=O", "IC50": 5.39},
      {"compound": "CN1Cc2cc(-c3ccc(-c4cncc(NS(=O)(=O)c5ccccc5OC(F)(F)F)c4)s3)ccc2C1=O", "IC50": 17.7},
      {"compound": "CN1Cc2cc(-c3ccc(-c4cncc(NS(=O)(=O)c5ccc(Cl)c(Cl)c5)c4)s3)ccc2C1=O", "IC50": 1.32},
      {"compound": "CN1Cc2cc(-c3ccc(-c4cc(NS(=O)(=O)c5ccccn5)ccc4F)s3)ccc2C1=O", "IC50": "> 20"},
      {"compound": "CN1Cc2cc(-c3ccc(-c4cncc(NS(=O)(=O)c5cccc(Cl)c5F)c4)s3)ccc2C1=O", "IC50": 13},
      {"compound": "CN1Cc2cc(-c3ccc(-c4cncc(NS(=O)(=O)c5ccsc5)c4)s3)ccc2C1=O", "IC50": 12.5},
      {"compound": "COc1ncc(-c2ccc(-c3ccc4c(c3)CN(C)C4=O)s2)cc1NS(=O)(=O)c1ccc(F)cc1F", "IC50": 3.56},
      {"compound": "CN1Cc2cc(-c3ccc(-c4cncc(NS(=O)(=O)c5cc(Br)cc(C(F)(F)F)c5)c4)s3)ccc2C1=O", "IC50": "> 20"},
      {"compound": "CN1Cc2cc(-c3ccc(-c4cncc(NS(=O)(=O)c5ccccc5[N+](=O)[O-])c4)s3)ccc2C1=O", "IC50": 6.65},
      {"compound": "CN1Cc2cc(-c3ccc(-c4cncc(NS(=O)(=O)c5ccc(I)cc5)c4)s3)ccc2C1=O", "IC50": 5}
    ]}
  ]
}
